Read-outs that look alike come from different tables or passages of the source.
How the values were obtained:
[1] = test system: CL097 triggered IFNα and TNFα release in human whole blood; assay: Ex vivo human IFNα and TNFα release inhibition (whole blood assay, CL097 triggered); assay type: cell-based; details: CL097 2 μg/mL, 3 h 30 min
Source text: 4.10.1. Ex Vivo Human IFNα and TNFα Release Inhibition (Whole Blood Assay)
The aim of the assay is to evaluate the activity of compounds of the invention on the activated TLR/IRAK-4 pathway in an ex vivo human whole blood setting. Toll-like receptors (TLRs) are pattern recognition receptors that recognize a wide variety of microbial molecules, called pathogen-associated molecular patterns (PAMPs). Human TLR7 and TLR8 recognize imidazoquinoline compounds (e.g., CL097—CAS n #1026249-18-2) and single stranded RNAs as their natural ligands. Activation of TLRs leads to the production of several cytokines (e.g., IFNα, TNFα, IL-8, IL-6) by the TLR agonist-treated cells, whereas IRAK4 leads to the production of IFNα. Cytokine release is used as readout in this assay and represents a measure for the level of inhibition of the TLR/IRAK-4 pathway by the tested compound. It should be noted that in the context of the complete organism, other sources for these cytokines exist that are not dependent on the TLR/IRAK-4 pathway, such as e.g., macrophages (upon activation of the Fcγ receptor (Yan et al. 2012)) or T cells (upon activation of the T cell receptor (Brehm, Daniels, and Welsh 2005)).
4.10.1.1. Experimental Design
Blood was collected from healthy volunteers into lithium heparin tubes by venipuncture, then gently inverted several times to prevent clotting and incubated for at least 15 min at 37° C. on a rocking mixer shaker. Then, 100 μL of blood was dispensed into polypropylene 96-well microplate and pre-incubated in duplicate with 0.3% DMSO or test compound at different concentrations (from 30 to 0.01 μM, 3-fold dilutions to get 0.3% DMSO at the final) for 15 min at 37° C. After this pre-incubation, blood was triggered with CL097 (2 μg/mL from 1 mg/mL solution in water; InvivoGen, tlr1-c97) for 3 h 30 min at 37° C. Microtubes were centrifuged at 5000×g for 10 min at 4° C. and approximately 40 μL of plasma were collected into a polystyrene 96-well plate. Plasma could be analyzed freshly, within 30 min after triggering, or frozen at −80° C. Finally, the quantification of TNFα and IFNα were performed in the plasma using AlphaLISA Kit for […] according to the manufacturer's instructions and read on the Ensight (PerkinElmer).
A standard curve was created by plotting on log-log the mean absorbance on the y-axis against the concentration on the x-axis and a 4 PL was made through the points. For each blood sample, the IFNα concentrations of the samples were determined from the fit.
Data were then expressed as a percentage of inhibition (PIN) for each replicate using the formula:
With mean IFNα with CL097=mean IFNα concentration of replicate samples triggered with CL097; IFNαsample1=IFNα concentration of sample 1; mean IFNα with vehicle=mean IFNα concentration of replicate samples treated with vehicle.
For each blood sample, the TNFα concentrations of the samples were determined from the fit. Data were then expressed as a percentage of inhibition (PIN) for each replicate using the formula:
With mean TNFα with CL097=mean TNFα concentration of replicate samples triggered with CL097; TNFαsample1=TNFα concentration of sample 1; mean TNFα with vehicle=mean TNFα concentration of replicate samples treated with vehicle.
Curve fitting for pIC50 determination were generated using mean PIN±sem. Graphs and pIC50 calculations were derived using Prism 5.03 software (GraphPad).

[2] = test system: pooled cryopreserved hepatocytes; assay: Metabolic stability in hepatocytes (mouse); assay type: in vitro ADME; details: 1 μM test compound
In short: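 Test compound at 1 μM (0.03% DMSO) incubated with 0.5 million viable pooled cryopreserved hepatocytes/mL at 37° C with shaking; sampled 0–180 min. Parent loss measured by LC-MS/MS versus time-zero, and intrinsic clearance derived from percentage-remaining plots, scaled to L/h/kg and corrected for hepatocyte binding.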

IC50 ([1]; read-out: IFNα IC50)	IC50 ([1]; read-out: TNFα IC50)	Mouse (Perc. remaining at 90 min) [2]	Compound
500 to 1000 nM	0.1 to 500 nM	91.45%	COc1c(NC(=O)c2cccn(C3CC3)c2=O)cn2cc(CCC(C)(C)O)nc2c1F [Compound 42, 1-cyclopropyl-N-[8-fluoro-2-(3-hydroxy-3-methyl-butyl)-7-methoxy-imidazo[1,2-a]pyridin-6-yl]-2-oxo-pyridine-3-carboxamide]
1000 to 5000 nM	1000 to 5000 nM	86%	CC(C)(O)CCc1cn2cc(NC(=O)c3cccc(C(F)(F)F)n3)c(C(=O)NCC(F)F)cc2n1 [Compound 48, N-(2,2-difluoroethyl)-2-(3-hydroxy-3-methylbutyl)-6-(6-(trifluoromethyl)picolinamido)imidazo[1,2-a]pyridine-7-carboxamide]

From patent publication US20220194938A1, “NOVEL COMPOUNDS AND PHARMACEUTICAL COMPOSITIONS THEREOF FOR THE TREATMENT OF INFLAMMATORY DISORDERS” (GALAPAGOS NV, priority 2019, published 2022)
